Measurements reported in publication PMC9000710, “Synthesis and Hemostatic Activity of New Amide Derivatives” (Molecules, 2022).
Entries after “also recorded” stand apart in the source; their conditions may differ.

How the values were obtained:
human blood plasma [1] = assay: Clot formation and fibrinolysis (CFF) assay; assay type: biochemical; conditions: for Amax (maximum of fibrin clot absorbance at 360 nm) / VmaxC (of Fibrin Polymerization) / VmaxF (of Fibrin Clot Lysis): control plasma assumed as 100%, mean ± SD, n = 5–7; for effect on fibrin polymerization (VmaxC) in words: tested at 10, 25, 50 mg/L
Summary of the method: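 Human plasma preincubated 15 min at 37 °C with test substances (10, 25, 50 mg/L final), then mixed with thrombin (0.75 U/mL), t-PA (225 ng/mL) and 7.5 mM CaCl2 in TBS pH 7.4. Absorbance at 360 nm followed 60 min at 37 °C; VmaxC, Amax and VmaxF derived.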

human blood plasma [2] = assay: Activated partial thromboplastin time (aPTT) clotting assay; assay type: biochemical
human blood plasma [3] = assay: Thrombin time (TT) clotting assay; assay type: biochemical
human blood plasma [4] = assay: Prothrombin time (PT) clotting assay; assay type: biochemical
erythrocytes = assay: Hemolysis assay (stability of erythrocytes); assay type: cell-based, human
[5] = Hemolysis assay (stability of erythrocytes); assay type: cell-based, human; conditions: male, human, heparinized whole blood diluted with saline (erythrocytes)

Cl.NCCCCCC(=O)NCC(=O)O [Amide 1, 2-(6-Aminohexanamido)acetic acid hydrochloride]
fibrinolytic activity (VmaxF), effect in words (human blood plasma [1]; 50 µg/mL): no statistically significant effect
Amax (maximum of fibrin clot absorbance at 360 nm) (human blood plasma [1]; 10 mg/L): 105.98 ± 4.31 %
VmaxC (of Fibrin Polymerization) (human blood plasma [1]; 10 mg/L): 106.12 ± 4.28 %
VmaxF (of Fibrin Clot Lysis) (human blood plasma [1]; 10 mg/L): 99.08 ± 9.93%
Amax (maximum of fibrin clot absorbance at 360 nm) (human blood plasma [1]; 25 mg/L): 107.24 ± 8.91%
VmaxC (of Fibrin Polymerization) (human blood plasma [1]; 25 mg/L): 105.66 ± 6.27%
VmaxF (of Fibrin Clot Lysis) (human blood plasma [1]; 25 mg/L): 87.32 ± 20.27%
Amax (maximum of fibrin clot absorbance at 360 nm) (human blood plasma [1]; 50 mg/L): 104.62 ± 9.46%
VmaxC (of Fibrin Polymerization) (human blood plasma [1]; 50 mg/L): 104.20 ± 3.85 %
VmaxF (of Fibrin Clot Lysis) (human blood plasma [1]; 50 mg/L): 95.58 ± 15.97%
effect on fibrin polymerization (VmaxC) in words (human blood plasma [1]): Mild pro-coagulant effects
aPTT Time [% of Control] (human blood plasma [2]; c 10 mg/L): 108.3 ± 11.9 % of Control
aPTT Time [% of Control] (human blood plasma [2]; c 25 mg/L): 105.1 ± 7.7 % of Control
aPTT Time [% of Control] (human blood plasma [2]; c 50 mg/L): 101.9 ± 9.3 % of Control
aPTT, effect versus control in words (human blood plasma [2]; tested at 10, 25, 50 mg/L): not statistically significant
TT Time [% of Control] (human blood plasma [3]; c 10 mg/L): 95.9 ± 6.3 % of Control
TT Time [% of Control] (human blood plasma [3]; c 25 mg/L): 96.1 ± 6.8 % of Control
TT Time [% of Control] (human blood plasma [3]; c 50 mg/L): 94.3 ± 8.3 % of Control
prothrombin time, effect versus control in words (human blood plasma [4]; at all concentrations (10, 25, 50 mg/L)): significantly decreased
PT Time [% of Control] (human blood plasma [4]; c 10 mg/L): 96.3 ± 2.5 % of Control
PT Time [% of Control] (human blood plasma [4]; c 25 mg/L): 95.0 ± 2.9 % of Control
PT Time [% of Control] (human blood plasma [4]; c 50 mg/L): 95.7 ± 2.2 % of Control
Hemolysis [%] (erythrocytes; c 500 mg/L, 45 min): 0.27%
Hemolysis [%] (erythrocytes; c 500 mg/L, 120 min): 0.59%
Hemolysis [%] (erythrocytes; c 500 mg/L, 240 min): 0.58%
hemolysis at 45 min, 5 mg/L ([5]; c 5 mg/L, 45 min): 0%
hemolysis at 45 min, 50 mg/L ([5]; c 50 mg/L, 45 min): 0.5%
hemolysis at 120 min, 50 mg/L ([5]; c 50 mg/L, 120 min): 0.18%
hemolysis at 240 min, 50 mg/L ([5]; c 50 mg/L, 240 min): 0.35%
hemolysis at 120 min, 500 mg/L ([5]; c 500 mg/L, 120 min): 0.56%
hemolysis at 240 min, 500 mg/L ([5]; c 500 mg/L, 240 min): 0.42%

Cl.NCC(=O)NCCCCCC(=O)O [Amide 8, 6-(2-Aminoacetamido)hexanoic acid hydrochloride]
melting point: 120 to 123 °C
Amax (maximum of fibrin clot absorbance at 360 nm) (human blood plasma [1]; 10 mg/L): 104.83 ± 2.83 %
VmaxC (of Fibrin Polymerization) (human blood plasma [1]; 10 mg/L): 101.96 ± 6.62%
VmaxF (of Fibrin Clot Lysis) (human blood plasma [1]; 10 mg/L): 82.96 ± 12.49 %
Amax (maximum of fibrin clot absorbance at 360 nm) (human blood plasma [1]; 25 mg/L): 100.18 ± 3.77%
VmaxC (of Fibrin Polymerization) (human blood plasma [1]; 25 mg/L): 100.98 ± 6.60%
VmaxF (of Fibrin Clot Lysis) (human blood plasma [1]; 25 mg/L): 96.07 ± 14.56%
Amax (maximum of fibrin clot absorbance at 360 nm) (human blood plasma [1]; 50 mg/L): 108.64 ± 11.94%
VmaxC (of Fibrin Polymerization) (human blood plasma [1]; 50 mg/L): 105.67 ± 8.34%
VmaxF (of Fibrin Clot Lysis) (human blood plasma [1]; 50 mg/L): 66.90 ± 23.22 %
effect on fibrin polymerization (VmaxC) in words (human blood plasma [1]): did not influence
aPTT Time [% of Control] (human blood plasma [2]; c 10 mg/L): 95.1 ± 7.5 % of Control
aPTT Time [% of Control] (human blood plasma [2]; c 25 mg/L): 97.7 ± 5.9 % of Control
aPTT Time [% of Control] (human blood plasma [2]; c 50 mg/L): 95.2 ± 7.3 % of Control
TT Time [% of Control] (human blood plasma [3]; c 10 mg/L): 100.0 ± 7.0 % of Control
TT Time [% of Control] (human blood plasma [3]; c 25 mg/L): 94.3 ± 1.3 % of Control
TT Time [% of Control] (human blood plasma [3]; c 50 mg/L): 92.4 ± 5.2 % of Control
TT, effect versus control in words (human blood plasma [3]; c = 25, and 50 mg/L): shorter TT than the control sample
PT Time [% of Control] (human blood plasma [4]; c 10 mg/L): 93.0 ± 2.2 % of Control
PT Time [% of Control] (human blood plasma [4]; c 25 mg/L): 95.5 ± 4.3 % of Control
PT Time [% of Control] (human blood plasma [4]; c 50 mg/L): 97.2 ± 3.2 % of Control
prothrombin time, effect versus control in words (human blood plasma [4]; concentration not specified (10, 25, 50 mg/L tested)): slightly but statistically significantly reduced
prothrombin time, effect versus control in words (human blood plasma [4]; lowest concentration (10 mg/L)): fell only slightly; also recorded: most effectively lowered
Hemolysis [%] (erythrocytes; c 50 mg/L, 240 min): 0.3%
hemolysis at 45 min, 5 mg/L ([5]; c 5 mg/L, 45 min): 0.08%
hemolysis at 120 min, 5 mg/L ([5]; c 5 mg/L, 120 min): 0.74%
hemolysis at 45 min, 50 mg/L ([5]; c 50 mg/L as printed in the third concentration block of amides 7 and 8, 45 min): 0%
hemolysis at 120 min, 50 mg/L ([5]; c 50 mg/L as printed in the third concentration block of amides 7 and 8, 120 min): 0.47%
hemolysis at 240 min, 50 mg/L ([5]; c 50 mg/L as printed in the third concentration block of amides 7 and 8, 240 min): 0.37%
hemolysis at 45 min, 50 mg/L ([5]; c 50 mg/L, 45 min): 0.44%
hemolysis at 120 min, 50 mg/L ([5]; c 50 mg/L, 120 min): 0.71%
hemolysis at 240 min, 50 mg/L ([5]; c 50 mg/L, 240 min): 0.36%
